# In patent US20260207656A1, “COMPOSITION FOR PREVENTING AND/OR TREATING METABOLIC DISORDERS AND METHOD OF ITS PREPARATION” (Pharmako Biotechnologies Pty Ltd, priority 2022, published 2026):
# Assay: In vivo study in rats fed a high-fat diet for 3 weeks (Example 2): body weight, blood glucose, liver weight, hepatic enzymes
# Parameters: species or system Sprague-Dawley rats
# Experimental: Sprague-Dawley rats (8-week-old; OzGene, formerly Animal Resources Centre, Perth) were fed a high-fat diet (22% fat/44% energy from fat, sourced from Specialty Feeds, Glen Forrest WA) where animals were provided access to food ad libitum for a period of 3 weeks. The rats were divided into groups and administered treatments as follows: (i) PBS (negative control), (ii) INU-BEN (1 g/kg), (iii) orlistat (tetrahydrolipstatin) (positive control; 75 mg/kg; Dayang Chem (Hangzhou) Co., Ltd) and (iv) a combination group of INU-BEN (1 g/kg) and orlistat (75 mg/kg). The rats were treated daily between […]. The experimental studies involved monitoring body weight daily, prior to dosing. Thereafter, blood samples were collected (by tail vein) prior to the rats being euthanized and were analysed for blood glucose levels and liver enzyme concentrations. The rats were dissected and analysed for fat pad weight and liver weight. The rat microbiomes were also analysed at the completion of the 3-week treatment period via faecal samples.
structure (smiles),measurement,setting,value
"CCCCCCCCCCC[C@@H](C[C@@H]1OC(=O)[C@H]1CCCCCC)OC(=O)[C@H](CC(C)C)NC=O [orlistat, tetrahydrolipstatin]","plasma hepatic enzyme concentrations (LDH, ALT, AST)","after 3 weeks of treatment, FIGS. 7A-7C",does not exert a positive impact on plasma hepatic enzyme concentrations
same,body weight gain (change in rodent body weight normalized to original body weight),"daily treatment for 3 weeks, INU-BEN 1 g/kg, orlistat 75 mg/kg, vs PBS negative control, FIG. 3/4",performed about the same
